Where “and” joins values, the source holds several entries; their conditions need not be identical. Equal entries are not always repeated.
Assays:
[1] = test system: pial arteries branching out of the MCA (C57BL/6J); assay: Cerebral artery diameter through cranial window in vivo; set-up: species or system mouse
Method: Eight-12 week-old male and female C57BL/6J mice were anesthetized with a mixture of xylazine/ketamine (12/100 mg per kg) and kept anesthetized for the duration of the experiment with subsequent ketamine doses (50 mg/kg of weight) as needed. A catheter was inserted into the carotid artery so that the infusion went straight to the brain rather than towards the thoracic cavity. An area of the skull was cleared of tissue and thinned to expose the branching arteries originating from the MCA on the side the catheter was inserted, above the zygomatic arch, between the ear and eye of the skull[19],[34]. The exposed arteries branching out from the MCA were monitored using a Leica MC170 HD microscope with a mounted camera (Leica M125 C) connected to a computer monitor. Drugs were diluted to their final concentration in sodium saline (0.9% NaCl) and administered via catheter at 0.1 ml/25 g of weight. Cranial window images before and after drug administration were acquired every 60 seconds for subsequent analysis.

[2] = biological target: T1, slo1 (cbv1 isoform)+β1 BK channels (Rattus norvegicus, UniProt P97678); assay: Channel activity (NPo) in POPE/POPS planar lipid bilayers, cbv1+β1; assay type: biochemical; details: for normalized NPo, time course Fig 2E: 10uM PROG
T1 construct: made in house; host or cells: CHO cells, transient transfection; sucrose-gradient membrane preparation
T1 sequence (P97678 whole entry, canonical isoform): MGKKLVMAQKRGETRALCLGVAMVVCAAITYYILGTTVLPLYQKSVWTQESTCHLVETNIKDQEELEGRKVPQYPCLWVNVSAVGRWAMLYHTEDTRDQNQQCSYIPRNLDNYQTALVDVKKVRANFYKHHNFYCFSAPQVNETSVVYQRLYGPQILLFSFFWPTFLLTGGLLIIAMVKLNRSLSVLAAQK
T1 sequence (Q62976 1-1148 isoform Q62976-2 partner): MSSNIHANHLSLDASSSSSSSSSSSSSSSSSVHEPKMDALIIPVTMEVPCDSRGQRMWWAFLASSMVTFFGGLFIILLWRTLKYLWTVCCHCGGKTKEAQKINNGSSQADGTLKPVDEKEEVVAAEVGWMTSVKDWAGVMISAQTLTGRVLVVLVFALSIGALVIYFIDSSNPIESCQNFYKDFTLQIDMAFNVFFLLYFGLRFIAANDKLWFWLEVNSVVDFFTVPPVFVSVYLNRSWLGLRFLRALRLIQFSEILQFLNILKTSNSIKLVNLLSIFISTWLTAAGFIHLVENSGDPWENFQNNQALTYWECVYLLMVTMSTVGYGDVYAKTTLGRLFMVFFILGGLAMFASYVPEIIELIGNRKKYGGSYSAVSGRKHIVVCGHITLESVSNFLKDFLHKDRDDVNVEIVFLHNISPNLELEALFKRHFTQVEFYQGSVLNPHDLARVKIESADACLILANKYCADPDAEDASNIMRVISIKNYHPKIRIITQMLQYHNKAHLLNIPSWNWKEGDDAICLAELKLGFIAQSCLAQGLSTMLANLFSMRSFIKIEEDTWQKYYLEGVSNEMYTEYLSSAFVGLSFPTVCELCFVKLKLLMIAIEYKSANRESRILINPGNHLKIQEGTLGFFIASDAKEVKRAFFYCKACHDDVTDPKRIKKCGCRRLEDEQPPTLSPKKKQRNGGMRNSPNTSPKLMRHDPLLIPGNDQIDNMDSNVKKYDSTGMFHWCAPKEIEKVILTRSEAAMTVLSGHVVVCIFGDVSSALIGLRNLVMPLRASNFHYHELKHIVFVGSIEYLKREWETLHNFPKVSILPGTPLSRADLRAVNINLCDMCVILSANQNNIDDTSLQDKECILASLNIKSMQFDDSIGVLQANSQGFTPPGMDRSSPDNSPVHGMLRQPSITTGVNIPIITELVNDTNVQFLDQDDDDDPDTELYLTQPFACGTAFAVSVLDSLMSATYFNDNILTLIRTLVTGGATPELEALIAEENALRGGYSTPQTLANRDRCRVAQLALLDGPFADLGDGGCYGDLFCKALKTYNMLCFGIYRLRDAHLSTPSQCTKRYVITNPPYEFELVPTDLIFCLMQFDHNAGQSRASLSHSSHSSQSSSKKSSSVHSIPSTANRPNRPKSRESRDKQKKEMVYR
Excerpt: (§1) BK channel-forming slo1 cDNA (cbv1 isoform; AY330293) was cloned from rat cerebral artery SM cells, and inserted into pcDNA3.1 vector as described. BK β1 cDNA (KCNMB1 product; NP_011452; FJ154955) were isolated from rat cerebral artery SM cells and cloned as described. β4 cDNA (KCNMB4; NP_055320; AY028605) were generously provided by Dr. Ligia Toro. CHO cells were transiently transfected with cbv1 ± β1-, or β4-carrying pcDNA3.1 using X-tremeGENE HP (Sigma-Aldrich). Mutations to β1/4 cDNAs were conducted by Genscript, with sequences being confirmed to be >99% identical to KCNMB1 product; NP_011452 or β4 KCNMB4; NP_055320; respectively. β1/4 and mutant constructs were flag-tagged (DYKDDDDK-tag) by Genscript services for subsequent immunoprecipitation and use in microscale thermophoresis studies.
Proteins for electrophysiological recordings in artificial lipid bilayers remained untagged. Cells were transiently transfected as described above, pelleted and re-suspended on ice in 10 ml of buffer solution of the following composition (mM): 30 KCl, 2 MgCl2, 10 HEPES, 5 EGTA; pH 7.2. A membrane preparation was obtained using a sucrose gradient as described. Aliquots were stored at −80 °C. BK channel-mediated ionic current was recorded in planar lipid bilayers consisting of a POPE:POPS 3:1 (w/w) mixture. Lipid mixtures were dried under N2 and re-suspended in 25 mg/ml of n-decane BK currents following incorporation into horizontal bilayers at 300/30 mM cis/trans gradient as detailed elsewhere. Ion currents were obtained during a 10-min gap-free recording at 0 mV in the presence of 0.01, 10 μM PROG, 10 μM PROG-oxime, or vehicle control (dimethyl sulfoxide; DMSO). Currents were obtained in gap-free mode using a Warner BC-525D amplifier, low pass-filtered at 1 kHz and sampled at 5 kHz with Digidata 1550B/pCLAMP 11 (Molecular Devices). For comparison with previous data from us[16],[17],[45]–[47], studies were conducted at 20–22 °C. […]
Patch-clamp and bilayer data were analyzed using Clampfit 10.7 software (Molecular Devices). NPo was used as an index of channel steady-state activity where N = number of channels in the patch (defined as a maximal number of opening levels at Po≤1) and Po=single channel open probability. Drug-induced NPo changes were determined by comparing baseline NPo (i.e., NPo with the patch/cell perfused with bath solution) to the NPo from the same patch/cell exposed to the agent under study (DMSO/PROG/oxime) dissolved in bath solution. NPo and mean open time values were automatically calculated using Clampfit 10.7, the latter using a 50% threshold detection event.

[3] = biological target: T2, β1Y32V,W163I (double mutant) (Rattus norvegicus, UniProt P97678, W163I/Y32V); assay: Thermal unfolding (MST) of β1 double mutant; assay type: binding
T2 construct: FLAG (DYKDDDDK); made in house; host or cells: CHO cells, transient transfection, anti-flag immunoprecipitation
T2 sequence (P97678 whole entry Y32V/W163I): as the sequence (P97678 whole entry, canonical isoform) above, with Y32V, W163I counted along it
Excerpt: as §1
Wt β1, wt β4 and mutant constructs were purified by immunoprecipitation using Dynabeads Protein G Kit (10007D by Invitrogen) and following the manufacturer’s instructions. […] The unfolding profile of a protein is a plot of its fluorescence signal against temperature. […] During the heating process, fluorescence is recorded at 330 and 350 nm. The resulting fluorescence ratio change is then analyzed for onset and inflection points. The temperature of onset and inflection is determined using built-in analysis function in Nanotemper PR.therm-control software. […]

Which results are given for `CC(=O)[C@H]1CC[C@H]2[C@@H]3CCC4=CC(=O)CC[C@]4(C)[C@H]3CC[C@]12C` [PROG, Progesterone]?
in vivo action on MCA branches ([1]; 10 μM infused via carotid artery, both sexes): vasodilation; artery diameter, normalized to time 0 ([1]; Fig 7C, time 4, individual replicates, male mice): 1.09 (2×) and 1.035 and 1.058 and 0.9438; artery diameter, normalized to time 0 ([1]; Fig 7C, time 5, individual replicates, male mice): 1.016 and 1.1 and 0.9912 and 1.082 and 0.9491; artery diameter, normalized to time 0 ([1]; Fig 7C, time 6, individual replicates, male mice): 1.051 and 1.116 and 1.012 and 1.08 and 1.037; artery diameter, normalized to time 0 ([1]; Fig 7C, time 7, individual replicates, male mice): 1.112 and 1.049 and 1.05 and 1.107 and 1.058; artery diameter, normalized to time 0 ([1]; Fig 7C, time 8, individual replicates, male mice): 1.011 and 1.1193 and 1.034 and 1.1 and 1.095; artery diameter, normalized to time 0 ([1]; Fig 7C, time 9, individual replicates, male mice): 1.079 and 1.105 and 1.031 and 1.086 and 1.089; artery diameter, normalized to time 0 ([1]; Fig 7C, time 10, individual replicates, male mice): 1.09 and 1.053 and 0.9685 and 1.068 and 1.048; artery diameter, normalized to time 0 ([1]; Fig 7C, time 11, individual replicates, male mice): 1.108 and 1.043 and 1.018 and 1.059 and 1.07; artery diameter, normalized to time 0 ([1]; Fig 7C, time 12, individual replicates, male mice): 0.9973 and 1.002 and 1.105 and 1.107 and 1.084; artery diameter, normalized to time 0 ([1]; Fig 7C, time 13, individual replicates, male mice): 1.13 and 1.0049 and 1.077 and 1.135 and 1.0321; artery diameter, normalized to time 0 ([1]; Fig 7D, time 4, individual replicates, female mice): 1.137 and 1.058 and 0.95 and 1.071 and 1.184; artery diameter, normalized to time 0 ([1]; Fig 7D, time 5, individual replicates, female mice): 0.9598 and 1.079 and 0.97 and 0.997 and 1.229; artery diameter, normalized to time 0 ([1]; Fig 7D, time 6, individual replicates, female mice): 1.069 and 1.14 and 1.01 and 1.116 and 1.159; artery diameter, normalized to time 0 ([1]; Fig 7D, time 7, individual replicates, female mice): 1.131 and 1.157 and 1.04 and 1.012 and 1.149; artery diameter, normalized to time 0 ([1]; Fig 7D, time 8, individual replicates, female mice): 1.128 and 1.058 and 1.05 and 1.074 and 1.104; artery diameter, normalized to time 0 ([1]; Fig 7D, time 9, individual replicates, female mice): 1.1 and 1.083 and 1.05 and 1.009 and 1.17; artery diameter, normalized to time 0 ([1]; Fig 7D, time 10, individual replicates, female mice): 1.137 and 1.135 and 1.10 and 1.112 and 1.096; artery diameter, normalized to time 0 ([1]; Fig 7D, time 11, individual replicates, female mice): 1.0383 and 1.014 and 1.12 and 1.119 and 1.133; artery diameter, normalized to time 0 ([1]; Fig 7D, time 12, individual replicates, female mice): 1.097 and 0.9908 and 1.08 and 1.129 and 1.16; artery diameter, normalized to time 0 ([1]; Fig 7D, time 13, individual replicates, female mice): 1.0971 and 1.058 and 1.25 and 1.0807 and 1.024; artery diameter, normalized (PROG vs oxime comparison) ([1]; Fig 7F, same values as Fig 7D time 7, individual replicates, female mice): 1.043; ECmax (EC100) of channel activation ([2]; 0 mV, 30 μM free Ca2+): 10 µM; concentrations at which the channel is activated ([2]; 0 mV, 30 μM free Ca2+): greater than 0.1 μM; NPo/NPobasal ([2]; 0.01 µM PROG, min 2, single records): 1.005 and 1.018 and 0.9275 and 1.019; NPo/NPobasal ([2]; 0.01 µM PROG, min 3, single records): 1.029 and 1.009 and 1.058 and 0.9199; NPo/NPobasal ([2]; 0.01 µM PROG, min 4, single records): 1.061 and 1.114 and 0.9928 and 1.089; NPo/NPobasal of the maximal channel activity ([2]; 0.01 µM PROG, single records (Fig 1F)): 1.155 and 1 and 1.022 and 0.9918; NPo/NPobasal ([2]; 0.1 µM PROG, min 2, single records): 0.9159 and 1.034 and 0.6663 and 1.012; NPo/NPobasal ([2]; 0.1 µM PROG, min 3, single records): 0.7024 and 1.035 and 0.937 and 1.005; NPo/NPobasal ([2]; 0.1 µM PROG, min 4, single records): 0.9376 and 1.037 and 1.102 and 0.9472; NPo/NPobasal ([2]; 0.1 µM PROG, min 5, single records): 0.831 and 1.031 and 0.9946; NPo/NPobasal ([2]; 0.1 µM PROG, min 6, single records): 0.9108 and 1.004; NPo/NPobasal ([2]; 0.1 µM PROG, min 7, single records): 0.902 and 1.062; NPo/NPobasal ([2]; 0.1 µM PROG, min 8, single records): 0.9384 and 1.053; NPo/NPobasal ([2]; 0.1 µM PROG, min 9, single records): 0.9735 and 1.083; NPo/NPobasal ([2]; 0.1 µM PROG, min 10, single records): 1.131 and 1.104; NPo/NPobasal ([2]; 1 µM PROG, min 2, single records): 1.067 and 1.036 and 1.018 and 0.9862; NPo/NPobasal ([2]; 1 µM PROG, min 3, single records): 1.103 and 0.992 and 0.9993 and 1.0069; NPo/NPobasal ([2]; 1 µM PROG, min 4, single records): 0.9802 and 1.24 and 0.9671 and 1.426; NPo/NPobasal ([2]; 1 µM PROG, min 5, single records): 1.982 and 1.288 and 1.134 and 1.31; NPo/NPobasal ([2]; 1 µM PROG, min 6, single records): 1.589 and 1.543 and 1.405 and 1.4; NPo/NPobasal ([2]; 1 µM PROG, min 7, single records): 1.339 and 1.38; NPo/NPobasal ([2]; 1 µM PROG, min 8, single records): 1.498 and 1.434; NPo/NPobasal ([2]; 1 µM PROG, min 9, single records): 1.121 and 1.382; NPo/NPobasal ([2]; 1 µM PROG, min 10, single records): 1.43 and 1.377; NPo/NPobasal ([2]; 3 µM PROG, min 3, single records): 1.768 and 1.125 and 1.174; NPo/NPobasal ([2]; 3 µM PROG, min 4, single records): 2.026 and 1.046 and 1.706; NPo/NPobasal ([2]; 3 µM PROG, min 9, single records): 2.184 and 1.286; NPo/NPobasal ([2]; 3 µM PROG, min 10, single records): 2.295 and 1.4507; normalized NPo, time course Fig 2E ([2]; cbv1+beta1, time 1 min (normalisation reference), columns = single bilayers): 1; normalized NPo, time course Fig 2E ([2]; cbv1+beta1, time 2 min): 1.077 and 1.05 and 1.119 and 1.043 and 0.7556 and 0.908 and 1.053; normalized NPo, time course Fig 2E ([2]; cbv1+beta1, time 6 min): 1.387 and 1.439 and 2.22 and 2.096 and 2.632 and 2.4507 and 1.714; normalized NPo, time course Fig 2E ([2]; cbv1+beta1, time 7 min): 1.767 and 1.768 and 2.22 and 2.153 and 1.686 and 2.452 and 1.347; normalized NPo, time course Fig 2E ([2]; cbv1+beta1, time 9 min): 1.702 and 2.262 and 1.688 and 2.653 and 1.535 and 1.822; normalized NPo, time course Fig 2E ([2]; cbv1+beta1, time 10 min): 1.856 and 2.788 and 1.831 and 1.767 and 1.527; action on channel activity (NPo) ([2]; 10 μM, cis chamber, vs DMSO): readily and robustly activated; NPo/NPobasal ([2]; 100 µM PROG, min 2, single records): 0.9793 and 1.054 and 0.898; NPo/NPobasal ([2]; 100 µM PROG, min 3, single records): 1.51 and 1.02 and 1.024; NPo/NPobasal ([2]; 100 µM PROG, min 4, single records): 1.597 and 1.676 and 0.9571; NPo/NPobasal ([2]; 100 µM PROG, min 5, single records): 1.91 and 2.009 and 1.692; NPo/NPobasal ([2]; 100 µM PROG, min 6, single records): 2.017 and 2.015 and 2.955; NPo/NPobasal ([2]; 100 µM PROG, min 7, single records): 1.186 and 2.342 and 2.352; NPo/NPobasal ([2]; 100 µM PROG, min 8, single records): 1.501 and 2.445 and 2.086; NPo/NPobasal ([2]; 100 µM PROG, min 9, single records): 1.524 and 2.434; NPo/NPobasal ([2]; 100 µM PROG, min 10, single records): 1.446 and 2.664; effect on thermal unfolding / binding ([3]; 4.1 μM): not destabilized; effect on thermal unfolding / binding ([3]; low concentrations (subμM)): still destabilized

Source: PMC10636063, “Progesterone activation of β1-containing BK channels involves two binding sites” (Nature Communications, 2023)
